Data taken from US9737504B2, “Dihydroorotic and acid dehydrogenase inhibitor” (NAI INC., priority 2012, dated 2017).
Where two headings read alike, the source gives them in different places.

Experiments:
SNB-78 = experiment: JFCR39 cancer cell growth inhibition test, SNB-78; format: cell-based; conditions: Homo sapiens; SNB-78, CNS (Central Nervous Systems)
[1] = test system: Panc-1 cells (human pancreatic cells); experiment: Inhibitory effect on Panc-1 cells, control vs hypoxic and subnutritional conditions; format: cell-based; conditions: for IC50: Homo sapiens
Procedure: For these reasons, cells of colorectal and pancreatic cancers, each being regarded as intractable, were used to test the inhibitory effect of compounds under hypoxic and subnutritional conditions. Moreover, the same test was also performed on normal skin cells.
The cells used were two types of cancer cells, i.e., DLD-1 cells (human colorectal cancer cells) and Panc-1 cells (human pancreatic cells), as well as HDF cells (human dermal fibroblast cells). Culture conditions were set as follows: 21% oxygen with glucose and […] (10% FBS) for the control group, and 1% oxygen without glucose and […] (10% FBS) for the hypoxic and subnutritional group. The results obtained are shown in Tables 3, 4 and 5, as well as FIGS. 1, 2 and 3.

OVCAR-5 = experiment: JFCR39 cancer cell growth inhibition test, OVCAR-5; format: cell-based; conditions: Homo sapiens; OVCAR-5, Ov (Ovarian)
human DHOD = human DHOD (Homo sapiens, UniProt Q02127); experiment: Measurement of DHOD inhibitory activity (DCIP reduction, end point assay); format: biochemical; conditions: read-out: DHOD inhibition rate (%) 100 nM; 100 nM compound
human DHOD, sequence (Q02127 whole entry): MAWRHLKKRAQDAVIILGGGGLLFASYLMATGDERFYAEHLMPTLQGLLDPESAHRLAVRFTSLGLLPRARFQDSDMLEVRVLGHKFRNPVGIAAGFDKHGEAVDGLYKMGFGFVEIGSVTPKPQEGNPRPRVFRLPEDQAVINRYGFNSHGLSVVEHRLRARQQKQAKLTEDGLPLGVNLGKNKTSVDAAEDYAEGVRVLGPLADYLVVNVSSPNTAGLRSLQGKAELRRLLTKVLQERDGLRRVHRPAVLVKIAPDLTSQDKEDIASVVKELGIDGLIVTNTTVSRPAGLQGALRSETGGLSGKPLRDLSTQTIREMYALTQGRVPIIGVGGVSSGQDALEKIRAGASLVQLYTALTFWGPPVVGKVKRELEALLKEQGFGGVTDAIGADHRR

MKN45 = experiment: JFCR39 cancer cell growth inhibition test, MKN45; format: cell-based; conditions: Homo sapiens, MKN-45; MKN45, St (Stomac)
MDA-MB-231 = experiment: JFCR39 cancer cell growth inhibition test, MDA-MB-231; format: cell-based; conditions: Homo sapiens; MDA-MB-231, Br (Breast)

With `C/C(=C\Cc1c(O)c(Cl)c(C)c(C=O)c1O)CC/C=C(\C)[C@@H]1CC(=O)C(C)(C)O1` (racemic) [Ascofuranone, dl-5-Chloro-2,4-dihydroxy-6-methyl-3-[(2E,6E)-3-methyl-7-(3,3-dimethyl-4-oxo-2-oxacyclopentyl)-2,6-octadienyl]benzaldehyde] the GI50 (SNB-78) was 23 µM, the IC50 ([1]; read-out: IC50 [μM] 1% O2 glc(−)gln(−), Panc-1, 1% O2 glc(−)gln(−)) was 1.4 µM and the IC50 ([1]; Panc-1, 21% O2 glc(+)gln(+), read-out: IC50 [μM] 21% O2 glc(+)gln(+)) was over 100 µM. For the same molecule, the “Selectivity = 21% glc(+)gln(+) IC50/1% glc(−)gln(−) IC50” value ([1]; Panc-1) was over 71, the GI50 (OVCAR-5) was 7.6 µM and the inhibition at 0.1 µM (human DHOD) was 95%. For the same molecule, the GI50 (MKN45) was 10 µM and the GI50 (MDA-MB-231) was 7.4 µM.
